Here are results for one molecule from patent publication US20070149480A1 (Alcon, Inc., priority 2005, published 2007).

The test system of one data set is FGFR. Description: Kinase inhibition, cell-free enzymatic assay. The note with it: 1 mM ATP. It counts as biochemical. As for the experimental part:
All data reported as IC50 values for kinase inhibition in cell-free enzymatic assays; ND denotes no data. Values determined @ 1 mM ATP.

A short description of data set [1]: Solubility of RTKi in phosphate buffer vehicle containing hydroxypropyl cyclodextrin (HPCD). The data set is classed as physicochemical. Particulars: for solubility enhancement: 10% HPCD in phosphate buffer vs phosphate buffer alone; for solubility: RTKi Solubility. From the text:
(§1) The present inventors have discovered that use of cyclodextrin derivatives to solubilize highly insoluble anti-angiogenic active compounds provides an efficacious ophthalmic formulation. […] Prototype intravitreal vehicle is shown in Example 1, and intravitreal and PJ formulations of the active compound containing HPCD are provided in Examples 2 and 3, respectively.
Solubility of RTKi in phosphate buffer vehicle containing various amount of hydroxypropyl cyclodextrin (HPCD).

The nature of data set [2]: Solubility of RTKi in phosphate buffer vehicle containing sulfobutylether beta cyclodextrin (SBCD). The data set is classed as physicochemical. Particulars: for solubility: RTKi Solubility.
Excerpt: as §1

≈ marks a conversion by molar mass, not a printed value.

For the molecule `Cc1ccc(F)c(NC(=O)Nc2ccc(-c3cccc4[nH]nc(N)c34)cc2)c1` [RTKi, N-[4-(3-amino-1H-indazol-4-yl)phenyl]-N′-(2-fluoro-5-methylphenyl) urea], the IC50 in the data set with FGFR is over 12.5 µM. The figures for the “RTKi Solubility” value in data set [1] (10% HPCD Phosphate Buffer) and in data set [2] (10% SBCD Phosphate Buffer) were 1.0988 mg/mL and 2.5265 mg/mL, respectively. Besides, the “solubility expressed as percent” value in data set [1] (10% HPCD in phosphate buffer) is reported as “about 0.1%”. The solubility enhancement entry in data set [1] is reported as “More than 1800 fold”; in data set [1] (listed as active compound), “approximately 1800 fold”. The solubility in data set [1] (phosphate buffer (0% HPCD), pH 7.2, aqueous buffer, pH 7.2) was found to be 0.59 µg/mL (≈ 1.57 µM); in data set [1] (phosphate buffer with 1% HPCD, pH 7.2, aqueous with cosolvent or surfactant or cyclodextrin, 1% HPCD in Phosphate Buffer), 82.3 µg/mL (≈ 219 µM); in data set [1] (phosphate buffer with 5% HPCD, pH 7.2, aqueous with cosolvent or surfactant or cyclodextrin, 5% HPCD Phosphate Buffer), 527 µg/mL (≈ 1400 µM); in data set [1] (phosphate buffer with 10% HPCD, pH 7.2, aqueous with cosolvent or surfactant or cyclodextrin, 10% HPCD Phosphate Buffer) it was 1090 µg/mL (≈ 2900 µM); in data set [2] (phosphate buffer (0% SBCD), pH 7.2, aqueous buffer), 0.59 µg/mL (≈ 1.57 µM); in data set [2] (phosphate buffer with 1% SBCD, pH 7.2, aqueous with cosolvent or surfactant or cyclodextrin, 1% SBCD in Phosphate Buffer), 188 µg/mL (≈ 501 µM). In addition, the solubility in data set [2] (phosphate buffer with 2.5% SBCD, pH 7.2, aqueous with cosolvent or surfactant or cyclodextrin, 2.5% SBCD Phosphate Buffer) turned out to be 641 µg/mL (≈ 1710 µM); in data set [2] (phosphate buffer with 5% SBCD, pH 7.2, aqueous with cosolvent or surfactant or cyclodextrin, 5% SBCD Phosphate Buffer), 1090 µg/mL (≈ 2910 µM); in data set [2] (phosphate buffer with 10% SBCD, pH 7.2, aqueous with cosolvent or surfactant or cyclodextrin, 10% SBCD Phosphate Buffer) it was 2520 µg/mL (≈ 6710 µM); in data set [2] (phosphate buffer with 20% SBCD, pH 7.2, aqueous with cosolvent or surfactant or cyclodextrin, 20% SBCD Phosphate Buffer), 4120 µg/mL (≈ 11000 µM).

The IC50 is the concentration that inhibits the measured activity by half. Low values mean greater potency in that assay, high ones weaker potency in that assay. In general, solubility refers to the concentration that dissolves in the medium under given conditions. High values mean a readily soluble substance, low ones a poorly soluble substance.
